The values that follow come from ChEMBL document CHEMBL1201862, “PubChem BioAssay data set” (2004).

The target in test [1] is Glyceraldehyde-3-phosphate dehydrogenase (Homo sapiens, UniProt P04406).
In test [2] the target is T1, Dual specificity protein phosphatase 6 (Rattus norvegicus, UniProt Q64346).
T1 sequence (Q64346 whole entry): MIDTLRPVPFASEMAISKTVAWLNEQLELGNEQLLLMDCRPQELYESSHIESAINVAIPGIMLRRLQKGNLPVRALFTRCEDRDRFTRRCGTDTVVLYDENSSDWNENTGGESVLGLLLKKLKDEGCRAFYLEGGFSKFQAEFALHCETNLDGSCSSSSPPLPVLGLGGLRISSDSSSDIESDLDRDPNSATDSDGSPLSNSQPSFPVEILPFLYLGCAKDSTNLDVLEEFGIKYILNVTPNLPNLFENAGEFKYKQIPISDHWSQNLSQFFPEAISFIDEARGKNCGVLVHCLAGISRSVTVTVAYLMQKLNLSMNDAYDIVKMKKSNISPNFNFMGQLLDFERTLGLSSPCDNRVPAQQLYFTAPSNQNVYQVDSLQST

Test [3] deals with T2, Tyrosine-protein phosphatase non-receptor type 7 (Homo sapiens, UniProt P35236).
T2 sequence (P35236 whole entry): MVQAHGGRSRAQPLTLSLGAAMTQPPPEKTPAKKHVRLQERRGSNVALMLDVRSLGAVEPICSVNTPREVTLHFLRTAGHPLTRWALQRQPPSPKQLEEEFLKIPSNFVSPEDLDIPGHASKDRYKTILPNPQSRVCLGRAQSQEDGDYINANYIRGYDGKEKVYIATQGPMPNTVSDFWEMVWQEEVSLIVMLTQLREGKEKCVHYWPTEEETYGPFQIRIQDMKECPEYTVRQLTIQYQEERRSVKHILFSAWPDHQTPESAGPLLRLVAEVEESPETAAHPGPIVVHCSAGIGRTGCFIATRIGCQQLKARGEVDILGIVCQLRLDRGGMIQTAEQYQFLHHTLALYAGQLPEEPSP
It is filed as functional.

Test [4] deals with T1, Dual specificity protein phosphatase 6. In kind it is functional.
Test [5] concerns the target T3, Voltage-gated N-type calcium channel alpha-1B subunit/Amyloid beta A4 precursor protein-binding family A member 1 (Homo sapiens, UniProt Q00975+Q02410). Briefly: disruptors of Mint-PDZ/N-type channel peptide interaction – biochemical, HTRF, SAR follow-up (AID 2489). In kind it is functional. On the technique in general: TR-FRET usually uses a lanthanide donor and a delayed reading to cut background.

Test [6] deals with T3, Voltage-gated N-type calcium channel alpha-1B subunit/Amyloid beta A4 precursor protein-binding family A member 1. Description: disruptors of Mint-PDZ/N-type channel peptide interaction – biochemical, HTRF, set 2, SAR follow-up (AID 434980). It is filed as functional.
For a further test, the target named is X-box-binding protein 1 (Homo sapiens, UniProt P17861). It is filed as functional, Cricetulus griseus.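 Also: confirmatory dose-response counter-screen serving a CHOP assay.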
Test [7] addresses T4, Hexokinase HKDC1 (Homo sapiens, UniProt Q2TB90).
T4 sequence (Q2TB90 whole entry): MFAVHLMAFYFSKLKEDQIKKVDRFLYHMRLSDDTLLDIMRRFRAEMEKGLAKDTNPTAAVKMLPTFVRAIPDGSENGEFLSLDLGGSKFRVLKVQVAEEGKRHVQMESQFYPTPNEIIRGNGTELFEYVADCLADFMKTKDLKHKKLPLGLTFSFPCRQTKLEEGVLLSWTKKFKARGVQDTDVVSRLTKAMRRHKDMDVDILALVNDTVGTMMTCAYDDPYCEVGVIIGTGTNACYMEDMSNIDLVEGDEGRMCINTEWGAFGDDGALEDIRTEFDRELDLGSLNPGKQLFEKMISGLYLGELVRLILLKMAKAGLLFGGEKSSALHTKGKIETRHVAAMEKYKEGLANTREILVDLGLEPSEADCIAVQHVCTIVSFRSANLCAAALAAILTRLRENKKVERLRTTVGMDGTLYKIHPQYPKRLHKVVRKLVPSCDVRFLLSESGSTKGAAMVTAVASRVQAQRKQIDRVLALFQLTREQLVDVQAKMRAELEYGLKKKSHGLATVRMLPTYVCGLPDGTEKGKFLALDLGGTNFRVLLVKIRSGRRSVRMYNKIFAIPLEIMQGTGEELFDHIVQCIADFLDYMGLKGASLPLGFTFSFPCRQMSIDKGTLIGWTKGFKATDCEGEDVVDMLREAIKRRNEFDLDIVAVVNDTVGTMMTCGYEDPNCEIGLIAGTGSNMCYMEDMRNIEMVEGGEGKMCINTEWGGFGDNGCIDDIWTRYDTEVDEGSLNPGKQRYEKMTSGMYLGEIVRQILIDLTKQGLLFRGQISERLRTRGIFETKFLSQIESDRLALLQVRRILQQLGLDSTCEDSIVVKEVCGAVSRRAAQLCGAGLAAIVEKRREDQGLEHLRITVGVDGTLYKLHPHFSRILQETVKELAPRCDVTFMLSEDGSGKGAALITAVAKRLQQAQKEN
Briefly: SAR analysis of small molecule inhibitors of hexokinase domain containing I (HKDC1). [Related pubchem assays (depositor defined):AID493160, AID493190]. In kind it is functional.

Test [8] has as its target T4, Hexokinase HKDC1. Description: inhibition of HKDC1 glucose phosphorylation – biochemical, W721R variant, dose response (AID 504729). It is filed as functional.
The target in the next test is T5, Hexokinase-1 (Homo sapiens, UniProt P19367).
T5 sequence (P19367 whole entry): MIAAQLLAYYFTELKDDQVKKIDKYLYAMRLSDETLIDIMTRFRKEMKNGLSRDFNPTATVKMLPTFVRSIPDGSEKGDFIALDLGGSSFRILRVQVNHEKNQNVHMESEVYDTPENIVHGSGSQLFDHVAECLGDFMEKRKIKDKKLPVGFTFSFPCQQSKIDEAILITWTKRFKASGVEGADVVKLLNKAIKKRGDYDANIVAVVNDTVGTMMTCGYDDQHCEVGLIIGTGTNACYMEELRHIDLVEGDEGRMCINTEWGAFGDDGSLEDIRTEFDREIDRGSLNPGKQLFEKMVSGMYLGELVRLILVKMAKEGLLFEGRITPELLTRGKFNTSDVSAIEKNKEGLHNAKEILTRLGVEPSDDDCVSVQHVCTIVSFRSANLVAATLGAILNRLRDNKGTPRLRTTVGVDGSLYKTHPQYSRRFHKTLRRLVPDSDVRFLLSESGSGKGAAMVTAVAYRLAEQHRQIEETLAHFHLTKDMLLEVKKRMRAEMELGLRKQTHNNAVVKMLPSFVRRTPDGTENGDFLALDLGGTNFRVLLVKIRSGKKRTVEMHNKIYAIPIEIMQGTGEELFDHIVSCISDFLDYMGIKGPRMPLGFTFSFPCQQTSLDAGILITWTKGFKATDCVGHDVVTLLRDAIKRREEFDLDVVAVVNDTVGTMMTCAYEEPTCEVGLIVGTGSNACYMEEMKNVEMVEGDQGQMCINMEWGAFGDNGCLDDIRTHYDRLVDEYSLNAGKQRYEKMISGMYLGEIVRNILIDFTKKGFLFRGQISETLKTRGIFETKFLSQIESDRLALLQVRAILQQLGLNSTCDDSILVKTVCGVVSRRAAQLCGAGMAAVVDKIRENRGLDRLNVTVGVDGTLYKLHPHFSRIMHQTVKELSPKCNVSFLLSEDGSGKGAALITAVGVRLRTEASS
Briefly: SAR analysis of small molecule inhibitors of hexokinase domain containing I (HKDC1) in the hexokinase 1 selectivity assay. [Related pubchem assays (depositor defined):AID493160, AID493190]. In kind it is functional.

For a further test, the target named is Wee1-like protein kinase (Homo sapiens, UniProt P30291). Description: HeLa cell cycle G2/M accumulation – FACS, mechanism study for Wee1 degradation inhibitor project, late-stage follow-up, panel member Wee1 Degradation (AID 2088).
Test [9] addresses G2/mitotic-specific cyclin-B1 (Homo sapiens, UniProt P14635). Briefly: HeLa cell cycle G2/M accumulation – FACS, mechanism study for Wee1 degradation inhibitor project, late-stage follow-up, panel member Cyclin B Degradation (AID 2088).
In test [10] the target is Scavenger receptor class B member 1 (Mus musculus, UniProt Q61009). Briefly: mouse SR-BI DiI-HDL uptake blockers – ldlA[mSR-BI] cells, fluorescence, cherry pick, dose response (AID 493194).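 Also: cellular uptake of fluorescent DiI-labeled HDL measured as cell fluorescence.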 In kind it is functional, cell-based.

The source made the active and inactive calls.

T3 sequence (Q00975 whole entry): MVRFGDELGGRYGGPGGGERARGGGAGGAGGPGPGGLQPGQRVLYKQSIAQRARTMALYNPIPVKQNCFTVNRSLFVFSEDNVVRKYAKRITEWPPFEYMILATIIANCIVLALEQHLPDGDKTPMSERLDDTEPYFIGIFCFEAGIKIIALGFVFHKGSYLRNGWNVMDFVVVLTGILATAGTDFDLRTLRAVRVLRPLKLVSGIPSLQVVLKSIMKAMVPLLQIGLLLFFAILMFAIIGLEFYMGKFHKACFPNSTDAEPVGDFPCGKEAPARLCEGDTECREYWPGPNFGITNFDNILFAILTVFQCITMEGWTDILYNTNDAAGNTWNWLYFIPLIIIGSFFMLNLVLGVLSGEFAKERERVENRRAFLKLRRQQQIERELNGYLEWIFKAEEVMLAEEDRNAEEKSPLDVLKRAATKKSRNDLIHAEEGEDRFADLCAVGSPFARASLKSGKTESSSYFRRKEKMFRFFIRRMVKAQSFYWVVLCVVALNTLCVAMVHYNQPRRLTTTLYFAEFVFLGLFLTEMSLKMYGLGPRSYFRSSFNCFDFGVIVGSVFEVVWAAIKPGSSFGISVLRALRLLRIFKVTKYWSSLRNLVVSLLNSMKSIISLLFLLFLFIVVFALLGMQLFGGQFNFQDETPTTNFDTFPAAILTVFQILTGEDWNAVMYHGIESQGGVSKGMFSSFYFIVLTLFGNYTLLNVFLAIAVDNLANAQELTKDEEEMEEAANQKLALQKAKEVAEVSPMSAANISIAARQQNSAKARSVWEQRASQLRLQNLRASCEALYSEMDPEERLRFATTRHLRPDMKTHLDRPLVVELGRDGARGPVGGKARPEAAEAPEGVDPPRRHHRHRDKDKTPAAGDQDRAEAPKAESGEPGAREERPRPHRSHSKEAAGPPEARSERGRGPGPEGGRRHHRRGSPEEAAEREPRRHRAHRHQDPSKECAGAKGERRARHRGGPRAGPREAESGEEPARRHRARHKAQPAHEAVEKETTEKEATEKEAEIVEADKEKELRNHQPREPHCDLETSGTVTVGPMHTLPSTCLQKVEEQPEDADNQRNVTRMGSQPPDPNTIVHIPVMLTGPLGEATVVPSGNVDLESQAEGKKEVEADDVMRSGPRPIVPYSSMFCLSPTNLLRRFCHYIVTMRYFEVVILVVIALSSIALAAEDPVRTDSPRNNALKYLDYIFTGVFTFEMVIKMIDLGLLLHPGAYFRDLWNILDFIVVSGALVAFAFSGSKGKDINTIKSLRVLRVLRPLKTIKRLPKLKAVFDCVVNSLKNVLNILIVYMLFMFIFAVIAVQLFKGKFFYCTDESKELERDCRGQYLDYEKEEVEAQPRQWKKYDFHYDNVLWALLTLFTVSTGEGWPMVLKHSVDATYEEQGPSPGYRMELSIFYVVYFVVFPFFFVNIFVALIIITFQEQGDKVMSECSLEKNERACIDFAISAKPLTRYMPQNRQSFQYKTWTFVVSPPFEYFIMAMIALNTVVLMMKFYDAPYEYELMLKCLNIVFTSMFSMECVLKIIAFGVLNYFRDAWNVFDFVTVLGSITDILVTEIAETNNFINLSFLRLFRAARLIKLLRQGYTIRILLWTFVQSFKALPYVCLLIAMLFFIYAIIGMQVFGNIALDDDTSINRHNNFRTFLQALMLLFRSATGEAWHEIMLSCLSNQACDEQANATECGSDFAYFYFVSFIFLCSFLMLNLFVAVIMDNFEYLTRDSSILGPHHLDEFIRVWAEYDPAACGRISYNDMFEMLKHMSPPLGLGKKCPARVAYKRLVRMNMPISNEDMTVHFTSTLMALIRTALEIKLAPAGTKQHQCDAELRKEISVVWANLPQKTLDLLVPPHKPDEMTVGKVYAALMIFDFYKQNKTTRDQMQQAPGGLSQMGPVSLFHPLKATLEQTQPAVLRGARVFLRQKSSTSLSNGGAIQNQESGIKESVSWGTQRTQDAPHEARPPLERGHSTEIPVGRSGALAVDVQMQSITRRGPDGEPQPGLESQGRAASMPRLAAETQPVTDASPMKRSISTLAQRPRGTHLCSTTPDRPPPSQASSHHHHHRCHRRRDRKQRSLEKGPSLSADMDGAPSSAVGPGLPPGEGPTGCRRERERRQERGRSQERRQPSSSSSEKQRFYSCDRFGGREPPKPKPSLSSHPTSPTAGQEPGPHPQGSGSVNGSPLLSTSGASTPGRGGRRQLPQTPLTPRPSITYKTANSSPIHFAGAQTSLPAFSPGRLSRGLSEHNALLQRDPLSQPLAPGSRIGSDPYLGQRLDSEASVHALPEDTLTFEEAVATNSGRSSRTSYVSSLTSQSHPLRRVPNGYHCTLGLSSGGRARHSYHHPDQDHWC
T3 sequence (Q02410 whole entry): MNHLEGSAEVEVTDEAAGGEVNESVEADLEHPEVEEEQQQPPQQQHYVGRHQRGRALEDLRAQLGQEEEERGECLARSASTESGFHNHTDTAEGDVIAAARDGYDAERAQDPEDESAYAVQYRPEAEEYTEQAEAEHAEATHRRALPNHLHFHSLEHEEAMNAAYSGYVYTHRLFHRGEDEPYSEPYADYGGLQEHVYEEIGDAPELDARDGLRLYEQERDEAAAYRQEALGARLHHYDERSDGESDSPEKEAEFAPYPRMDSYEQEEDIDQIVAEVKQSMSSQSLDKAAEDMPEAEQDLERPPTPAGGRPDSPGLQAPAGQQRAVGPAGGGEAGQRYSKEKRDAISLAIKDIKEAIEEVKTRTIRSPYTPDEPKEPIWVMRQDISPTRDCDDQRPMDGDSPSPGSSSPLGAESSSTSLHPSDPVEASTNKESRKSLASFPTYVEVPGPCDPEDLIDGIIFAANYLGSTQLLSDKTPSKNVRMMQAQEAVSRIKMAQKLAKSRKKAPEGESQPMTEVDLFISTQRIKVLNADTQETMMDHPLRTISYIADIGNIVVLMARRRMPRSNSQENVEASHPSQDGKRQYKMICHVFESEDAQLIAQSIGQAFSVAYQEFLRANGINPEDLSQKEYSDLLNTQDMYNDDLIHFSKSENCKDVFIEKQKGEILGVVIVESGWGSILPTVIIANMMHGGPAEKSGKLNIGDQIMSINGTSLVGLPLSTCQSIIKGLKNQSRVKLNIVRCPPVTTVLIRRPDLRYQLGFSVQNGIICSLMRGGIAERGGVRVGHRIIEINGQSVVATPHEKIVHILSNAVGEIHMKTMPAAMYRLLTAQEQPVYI
Scavenger receptor class B member 1, sequence (Q61009 whole entry): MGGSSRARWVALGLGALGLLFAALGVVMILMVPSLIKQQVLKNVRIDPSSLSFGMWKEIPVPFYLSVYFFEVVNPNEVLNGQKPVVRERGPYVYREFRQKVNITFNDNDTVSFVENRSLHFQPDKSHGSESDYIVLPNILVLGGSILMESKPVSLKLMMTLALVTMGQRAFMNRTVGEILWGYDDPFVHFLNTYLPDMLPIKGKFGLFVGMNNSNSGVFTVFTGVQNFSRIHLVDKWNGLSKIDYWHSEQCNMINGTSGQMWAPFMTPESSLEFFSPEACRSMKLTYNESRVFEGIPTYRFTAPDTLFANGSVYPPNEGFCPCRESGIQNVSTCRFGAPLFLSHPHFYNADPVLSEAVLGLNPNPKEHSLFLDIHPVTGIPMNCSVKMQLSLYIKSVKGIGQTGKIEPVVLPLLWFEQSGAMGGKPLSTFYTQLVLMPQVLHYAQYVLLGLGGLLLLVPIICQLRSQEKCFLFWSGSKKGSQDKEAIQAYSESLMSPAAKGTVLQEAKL
Glyceraldehyde-3-phosphate dehydrogenase, sequence (P04406 whole entry): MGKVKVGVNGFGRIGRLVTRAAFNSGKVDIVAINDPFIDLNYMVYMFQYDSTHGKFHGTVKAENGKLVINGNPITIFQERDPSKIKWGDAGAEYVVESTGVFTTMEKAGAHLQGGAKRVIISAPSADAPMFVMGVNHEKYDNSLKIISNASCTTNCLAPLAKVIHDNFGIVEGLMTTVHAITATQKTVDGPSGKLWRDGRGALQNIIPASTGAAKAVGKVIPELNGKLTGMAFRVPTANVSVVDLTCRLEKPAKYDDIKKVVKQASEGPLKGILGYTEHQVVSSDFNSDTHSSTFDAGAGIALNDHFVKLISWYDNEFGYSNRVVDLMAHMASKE
X-box-binding protein 1, sequence (P17861 whole entry): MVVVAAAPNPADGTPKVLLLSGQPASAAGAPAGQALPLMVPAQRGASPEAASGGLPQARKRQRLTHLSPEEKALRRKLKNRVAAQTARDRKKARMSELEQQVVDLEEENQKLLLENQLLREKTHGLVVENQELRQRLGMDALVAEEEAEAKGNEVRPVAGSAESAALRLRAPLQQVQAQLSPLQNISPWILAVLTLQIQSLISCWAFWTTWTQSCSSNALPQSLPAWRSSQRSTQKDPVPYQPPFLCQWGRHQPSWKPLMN
Wee1-like protein kinase, sequence (P30291 whole entry): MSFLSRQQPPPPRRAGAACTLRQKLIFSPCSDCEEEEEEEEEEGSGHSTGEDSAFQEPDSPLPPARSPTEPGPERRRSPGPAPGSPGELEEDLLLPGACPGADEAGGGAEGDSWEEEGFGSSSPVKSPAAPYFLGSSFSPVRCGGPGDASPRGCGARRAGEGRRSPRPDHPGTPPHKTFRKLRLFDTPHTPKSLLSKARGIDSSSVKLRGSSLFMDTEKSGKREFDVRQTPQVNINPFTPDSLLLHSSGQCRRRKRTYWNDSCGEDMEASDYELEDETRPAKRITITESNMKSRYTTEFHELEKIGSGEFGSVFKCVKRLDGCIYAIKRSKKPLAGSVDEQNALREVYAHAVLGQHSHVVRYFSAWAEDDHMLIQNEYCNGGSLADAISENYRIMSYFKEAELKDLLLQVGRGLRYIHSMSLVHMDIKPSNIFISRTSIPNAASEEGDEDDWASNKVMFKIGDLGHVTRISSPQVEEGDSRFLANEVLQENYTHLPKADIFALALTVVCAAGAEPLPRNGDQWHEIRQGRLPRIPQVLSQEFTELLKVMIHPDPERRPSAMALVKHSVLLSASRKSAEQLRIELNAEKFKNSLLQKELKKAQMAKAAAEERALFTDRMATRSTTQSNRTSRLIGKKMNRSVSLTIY

Take `O=C(O)C1Nc2c(F)cccc2C2C=CCC12` (stereo not drawn): the IC50 in test [1] is > 100 µM (not active); in test [2] it was 19.8 µM (active); in [3], 5.4 µM (active); in test [4] it was 17.2 µM (active).

Regarding `O=C(NCCc1ccccc1)c1cc(-c2ccco2)nc2ccccc12`, the IC50 in test [5] and in test [6] was > 56.8 µM (inactive) in each case.

With `Cc1nn(-c2ccc(C(F)(F)F)cn2)c(C)c1Oc1ccccc1O`, the “Absolute IC50 (XBP1)” value at X-box-binding protein 1 was 10 µM.

For `Cc1cc2nnc(SCC(=O)Nc3cc(S(=O)(=O)N4CCOCC4)ccc3Cl)n2c2ccccc12`, the IC50 on Hexokinase HKDC1 [7] was 3.39 µM (active); at Hexokinase HKDC1 [8], 3.16 µM (active); on Hexokinase-1, 3.76 µM (active).

As to `Cn1c(=O)cc(OCCCC(=O)Nc2cccc(C(F)(F)F)c2)c2ccccc21`, the EC50 (at Wee1-like protein kinase; in test [9]) was > 49.7 µM (inactive) in each case.

For the molecule `COC(=O)c1cn(C(=O)c2cccc3ccccc23)c2ccccc12`, the AC50 in test [10] was 25.1 µM (active).

As usually defined, the IC50 is the concentration needed to halve the response being measured. As a reminder, the EC50 is the concentration giving half of the maximal effect. In general, AC50 refers to the concentration giving half of the maximal activity seen.
